Source: patent US7446079B2, “Perfumes for rinse-off systems” (Givaudan Fragrances Corporation, priority 2005, dated 2008)
Like-named read-outs stand apart in the source and are kept apart here.

How the values were obtained:
[1] = GC-MS headspace release profile of Tropical Fruit perfume in shampoo, 1/100 dilution in water; assay type: physicochemical
Description: A 10 gram sample of formulation and fragrance was added to an empty 1000 ml pyrex beaker. This beaker was then filled with 1000 ml of 120 F tap water. Beaker with diluted shampoo sample was then immediately placed into a semi-enclosed plexiglass chamber.
Headspace Sampling: Once beaker was placed into chamber a Carboxan SPME field fiber was held at the top-side opening of the chamber over the beaker containing the sample. […] […] Top of plexiglass chamber was held open for entire 5 minutes of headspace sampling.

[2] = in water, cited from earlier work; for exp ODT (ppb) water: experimental values from the Booleans database

With `O=C1CCCCCCCCCCCC(=O)OCCO1` [ETHYLENE BRASSYLATE] the “GC Abundance” value ([1]; headspace at 50 seconds) was 20.

With `O=C1CCCCCCCCCCCCCCO1` [EXALTOLIDE TOTAL] the “GC Abundance” value ([1]; headspace at 50 seconds) was 50.

In the case of `CCOC(=O)C1OC1(C)c1ccccc1` (centres unmarked) [Ethyl 2,3-epoxy-3-methyl-3-phenylpropionate], the “exp ODT (ppb) water” value [2] is given as 25 ppb.

In the case of `CCOC(=O)C(C)CC` (centres unmarked) [Ethyl 2-methylbutyrate], the “exp ODT (ppb) water” value [2] is given as 0.1-0.3 ppb, the “GC Abundance” value ([1]; headspace at 10 seconds) is given as 3000 and the “GC Abundance” value ([1]; headspace at 20 seconds) is given as 3100. For the same molecule, the “GC Abundance” value ([1]; headspace at 30 seconds) was 3100, the “GC Abundance” value ([1]; headspace at 40 seconds) was 2000 and the “GC Abundance” value ([1]; headspace at 50 seconds) was 1500.

For `CC(C)c1cccc(C(C)CC=O)c1` (centres unmarked) [FLORHYDRAL], the “GC Abundance” value ([1]; headspace at 40 seconds) was 9000 and the “GC Abundance” value ([1]; headspace at 50 seconds) was 10000.

For `CC(C)CC1CC(C)(O)CCO1` (centres unmarked) [FLOROL], the “GC Abundance” value ([1]; headspace at 40 seconds) was 10000 and the “GC Abundance” value ([1]; headspace at 50 seconds) was 15000.

For `CCOC(=O)CC1(C)OCCO1` [FRUCTONE], the “ODT (ppb)” value ([2]; Table 9) is listed as “less than 50 ppb”, the “ODT (ppb)” value ([2]; Table 11) is listed as “less than 50 ppb” and the “ODT (ppb)” value ([2]; Table 13) is listed as “less than 50 ppb”. For the same molecule, the “GC Abundance” value ([1]; headspace at 20 seconds) was 3000, the “GC Abundance” value ([1]; headspace at 30 seconds) was 5000 and the “GC Abundance” value ([1]; headspace at 40 seconds) was 5000. For the same molecule, the “GC Abundance” value ([1]; headspace at 50 seconds) was 5000.

For `CCCCCCC1CCC(=O)O1` (centres unmarked) [GAMMA-DECALACTONE, 5-Hexyldihydro-2(3H)-furanone], the “ODT (ppb)” value ([2]; Table 9) is given as “less than 50 ppb”, the “ODT (ppb)” value ([2]; Table 11) is given as “less than 50 ppb” and the “ODT (ppb)” value ([2]; Table 13) is given as “less than 50 ppb”. The “GC Abundance” value ([1]; headspace at 40 seconds) was 4000 and the “GC Abundance” value ([1]; headspace at 50 seconds) was 7000.

In the case of `CCCCCC1C(=O)CCC1CC(=O)OC` (centres unmarked) [HEDIONE], the “ODT (ppb)” value ([2]; Table 9) is listed as “less than 50 ppb”, the “ODT (ppb)” value ([2]; Table 11) is listed as “less than 50 ppb” and the “ODT (ppb)” value ([2]; Table 13) is listed as “less than 50 ppb”. For the same molecule, the “GC Abundance” value ([1]; headspace at 50 seconds) was 4000.

In the case of `CC(C=O)Cc1ccc2c(c1)OCO2` (centres unmarked) [HELIONAL], the “GC Abundance” value ([1]; headspace at 40 seconds) is reported as 500 and the “GC Abundance” value ([1]; headspace at 50 seconds) is reported as 5000.

In the case of `CCCCCCOC(C)=O` [HEXYL ACETATE], the “ODT (ppb)” value ([2]; Table 9) is given as “less than 50 ppb”, the “ODT (ppb)” value ([2]; Table 11) is given as “less than 50 ppb” and the “ODT (ppb)” value ([2]; Table 13) is given as “less than 50 ppb”.

For `C=C(C)C1CC=C(C)C(=O)C1` (centres unmarked) [I-1-Methyl-4-isopropenyl-6-cyclohexen-2-one], the “exp ODT (ppb) water” value [2] is given as 50 ppb.

For `CC/C=C\CCOC(=O)OC` [LIFFAROME], the “GC Abundance” value ([1]; headspace at 20 seconds) was 3000, the “GC Abundance” value ([1]; headspace at 30 seconds) was 3000 and the “GC Abundance” value ([1]; headspace at 40 seconds) was 3000. For the same molecule, the “GC Abundance” value ([1]; headspace at 50 seconds) was 3000.

For `CC(C=O)Cc1ccc(C(C)(C)C)cc1` (centres unmarked) [LILIAL], the “ODT (ppb)” value ([2]; Table 9) is given as “less than 50 ppb”, the “ODT (ppb)” value ([2]; Table 11) is given as “less than 50 ppb” and the “ODT (ppb)” value ([2]; Table 13) is given as “less than 50 ppb”.

For `CC(C)(O)CCCC1=CCC(C=O)CC1` (centres unmarked) [LYRAL], the “ODT (ppb)” value ([2]; Table 13) is given as “less than 50 ppb”.

For `CC1OC(C)C2Cc3ccccc3C2O1` (centres unmarked) [MAGNOLAN/CORPS 719], the “GC Abundance” value ([1]; headspace at 40 seconds) was 1000 and the “GC Abundance” value ([1]; headspace at 50 seconds) was 3000.

For `COC(=O)c1c(C)cc(O)c(C)c1O` [METHYL ATRATATE], the “GC Abundance” value ([1]; headspace at 50 seconds) was 50.

For `CC(=O)OC/C=C(/C)CCC=C(C)C` [NERYL ACETATE], the “ODT (ppb)” value ([2]; Table 9) is given as “less than 50 ppb”, the “ODT (ppb)” value ([2]; Table 11) is given as “less than 50 ppb” and the “ODT (ppb)” value ([2]; Table 13) is given as “less than 50 ppb”.

In the case of `CC(C)C(=O)OCCOc1ccccc1` [PHENOXY ETHYL ISOBUTYRATE], the “ODT (ppb)” value ([2]; Table 9) is given as “less than 50 ppb”, the “ODT (ppb)” value ([2]; Table 11) is given as “less than 50 ppb” and the “ODT (ppb)” value ([2]; Table 13) is given as “less than 50 ppb”.

For `CCCCCOC(C)=O` [Pentyl Acetate], the “exp ODT (ppb) water” value [2] is listed as 43 ppb.

For `CCCCCOC(=O)CCC` [Pentyl butyrate], the “exp ODT (ppb) water” value [2] is listed as 44-87 ppb.

With `CC1=CCC(CCC(C)C(C)O)C1(C)C` (centres unmarked) [SANDALORE] the “GC Abundance” value ([1]; headspace at 50 seconds) was 2000.

For `CC(=O)OC(C)(C)C1CC=C(C)CC1` (centres unmarked) [TERPINYL ACETATE], the “GC Abundance” value ([1]; headspace at 30 seconds) was 1000, the “GC Abundance” value ([1]; headspace at 40 seconds) was 9000 and the “GC Abundance” value ([1]; headspace at 50 seconds) was 9000.

In the case of `CCC=C(C)C(O)CCCCC` (centres unmarked) [UNDECAVERTOL, 4-Methyl-3-decen-5-ol], the “GC Abundance” value ([1]; headspace at 40 seconds) is reported as 10000 and the “GC Abundance” value ([1]; headspace at 50 seconds) is reported as 10000.

For `CC(=O)OC1CCC(C(C)(C)C)CC1` (centres unmarked) [VERTENEX HC], the “GC Abundance” value ([1]; headspace at 30 seconds) was 2000, the “GC Abundance” value ([1]; headspace at 40 seconds) was 8000 and the “GC Abundance” value ([1]; headspace at 50 seconds) was 10000.

In the case of `CC(=O)C=CC1C(C)=CCCC1(C)C` (stereo not drawn) [alpha ionone, 4-(2,2,6-Trimethyl-2-cyclohexen-1-yl)-3-buten-2-one], the “exp ODT (ppb) water” value [2] is given as 0.4-10 ppb.

In the case of `C=C(C)[C@H]1CC=C(C)CC1` [d-LIMONENE, d-1-Methyl-4-isopropenyl-1-cyclohexene], the “GC Abundance” value ([1]; headspace at 5 seconds, Tropical Fruit perfume 1% in shampoo) is reported as 7000, the “GC Abundance” value ([1]; headspace at 10 seconds) is reported as 7000 and the “GC Abundance” value ([1]; headspace at 20 seconds) is reported as 7000. The “GC Abundance” value ([1]; headspace at 30 seconds) was 7000, the “GC Abundance” value ([1]; headspace at 40 seconds) was 5000 and the “GC Abundance” value ([1]; headspace at 50 seconds) was 4000.

For `CC(C)=CCCC(C)C=O` (centres unmarked) [melonal, 2,6-Dimethyl-5-heptenal], the “exp ODT (ppb) water” value [2] is listed as 16 ppb.

For `CCC(=O)OC/C=C(\C)CCC=C(C)C` [trans-3,7-Dimethyl-2,6-octadien-1-yl propanoate], the “exp ODT (ppb) water” value [2] is listed as 10 ppb.

With OXANONE CRYSTALS the “GC Abundance” value ([1]; headspace at 50 seconds) was 70.

For VERTOFIX COEUR, the “GC Abundance” value ([1]; headspace at 50 seconds) was 50.
